≈ marks a conversion by molar mass, not a printed value. Where “and” joins values, the source holds several entries; their conditions need not be identical. Equal entries are not always repeated. Structures can show the parent of a compound that is named as a salt. Where two headings read alike, the source gives them in different places.
Experiments:
HepG2 cells = test: HepG2 cytotoxicity assay (resazurin, 48 h); format: cell-based, human
Protocol: HepG2 cells (HB-8065) were fed fresh medium (Essential Minimum Eagle Medium, EMEM, supplemented with 5% fetal calf serum and 2 mM L-glutamine) the day before subculturing the plates. On the day of plate seeding, a cell suspension of 100,000 cells/mL in culture medium was prepared. Cell suspension (100 uL) was added in each well of a black 96-well microplate with clear bottom, collagen coated, (Becton Dickinson) except in column 11, that was dispensed only 100 uL of culture medium. The plates were incubated for 24 h. It was made up a range of 10 doses of test substances by preparing serial dilutions 1:2 from the stock solution in 100% DMSO and made a dilution of 1:200 of each dose in medium, to achieve a final concentration of 0.5% of DMSO. After 24 h, culture medium was removed from the plate and 150 uL of test compound dilutions were added in two replicates and 150 uL of 0.5% DMSO in culture medium to columns 11 and 12 (blank control). Plates were incubated for 48 and at 37° C., 5% CO2, 95% relative humidity. The medium was then removed and 200 uL of fresh culture medium was added and 50 uL of Resazurin solution to each well and incubated for 1 h and a half. Plates were removed from incubator to allow the fluorescence to stabilise at room temperature protected from light for 15 min. For read out of viability of cells we used Resazurine (BDH). Resazurin is used as an oxidation-reduction indicator that yields a colorimetric change and a fluorescent signal in response to metabolic activity. As cell grows, metabolic activity results in a chemical reduction of Resazurin indicated by a change from non-fluorescent blue to the reduced fluorescent pink form. The degree of Resazurin fluorescence is therefore, an indicator of the number of viable cells in the culture system. Fluorescence was measured at an excitation wavelength of 515 nm and an emission wavelength of 590 nm in a Microplate reader 1420 Multilabel HTS counter, Victor 2, (Wallac).
The fluorescence value of each well is corrected by subtracting the background value (average of column 11) from the absolute value. The percentages of inhibition are calculated relatively to the DMSO control wells (average of column 12). For each compound, the average value of the duplicate samples is calculated and the curve is fitted to Sigmoidal dose-response (variable slope) nonlinear regression curve adjustment (GraphPad) in order to calculate the IC50 (Tox50).

Mtb H37Rv = test: MIC determination against mycobacteria (resazurin); format: cell-based, M. tuberculosis; conditions: for Selectivity Index (A/B): HepG2 Tox50 (A) / Mtb H37Rv MIC (B); for MIC: Mycobacterium tuberculosis, read-out: Mtb H37Rv MIC (B)
Mtb LeuRS = Mtb LeuRS (Mycobacterium tuberculosis, UniProt P9WFV1); test: LeuRS aminoacylation assay, IC50 determination; format: biochemical, M. tuberculosis
Protocol: For biochemical analyses an N-terminal six histidine-tagged LeuRS was over-expressed in Escherichia coli which were E. coli codon-optimised (GenScript, Piscataway N.J., USA), from human mitochondria and cytoplasm, and M. tuberculosis. N-terminal six histidine-tagged LeuRS proteins were over-expressed and purified according to Novagen (Madison, Wis., USA) using an E. coli BL21(DE3) T7 RNA polymerase over-expression strain.
Experiments were performed in 96-well microtiter plates, using 80 μL reaction mixtures containing 50 mM HEPES-KOH (pH 8.0), 30 mM MgCl2 30 mM KCl, 13 μM L-[^14C]leucine (306 mCi/mmol, Perkin-Elmer), 15 uM total E. coli tRNA (Roche, Switzerland), 0.02% (w/v) BSA, 1 mM DTT, 0.2 μM LeuRS and 4 mM ATP at 30° C. Reactions were started by the addition of 4 mM ATP. After 7 minutes, reactions were quenched and tRNA was precipitated by the addition of 50 μL of 10% (w/v) TCA and transferred to 96-well nitrocellulose membrane filter plates (Millipore Multiscreen HTS, MSHAN4B50). Each well was then washed three times with 100 μL of 5% TCA. Filter plates were then dried under a heat lamp and the precipitated L-[^14C]leucine tRNALeu were quantified by liquid scintillation counting using a Wallac MicroBeta Trilux model 1450 liquid scintillation counter (PerkinElmer, Waltham, Mass., USA). The only difference was with the human cytoplasmic LeuRS when we used tRNA isolated from Brewer's Yeast (Roche Diagnostics GmbH).
Reactions were initiated by the addition of 4 mM ATP. Reactions were stopped after 7 minutes then precipitated and counted to quantify radioactivity. IC50 values were determined using the Graphpad Prism software package (Graphpad Software Inc. (La Jolla, Calif., USA).

Human cyto LeuRS = Human cyto LeuRS (Homo sapiens, UniProt Q9P2J5); test: LeuRS aminoacylation assay, IC50 determination; format: biochemical; conditions: tRNA from Brewer's Yeast
P. aeruginosa PA01 = test: General antimicrobial activity assay (CLSI broth microdilution), MIC; format: cell-based
Protocol: (§1) Whole-cell antimicrobial activity was determined by broth microdilution using the Clinical and Laboratory Standards Institute (CLSI) recommended procedure, Document M7-A7, “Methods for Dilution Susceptibility Tests for Bacteria that Grow Aerobically”.
(§2) Table 1 provides MIC values against bacterial strains K12; E. coli K12 tolC/Tn10; A. baumannii ATCC 17978; and P. aeruginosa PA01 for comparator compounds (C1-C15) shown in Table 4 and for G26-CH3. […] Similarly, compound G26-CH3 (Example 2) has poor activity against these Gram negative bacteria.

A. baumannii ATCC 17978 = test: as above; format: cell-based
Protocol: as §1, §2

E. coli K12 = test: as above; format: cell-based
Protocol: as §1, §2

E. coli K12 tolC::Tn10 = test: as above; format: cell-based; conditions: efflux pump deficient E. coli
Protocol: as §1, §2

S. pneumoniae ATCC 6301 = test: as above; format: cell-based
Protocol: as §1

S. aureus ATCC 29213 = test: as above; format: cell-based; design: unit not given beside the values
Protocol: as §1

[1] = tested on: pathogenic Gram negative bacteria; test: General antimicrobial activity assay, summary in words for the panel; format: cell-based
Protocol: as §1, §2

[2] = tested on: mammalian cellular protein synthesis; test: Inhibition of protein synthesis in mammalian cells; format: cell-based
[3] = M. tuberculosis standard strain H37Rv

Human cyto LeuRS, sequence (Q9P2J5 whole entry): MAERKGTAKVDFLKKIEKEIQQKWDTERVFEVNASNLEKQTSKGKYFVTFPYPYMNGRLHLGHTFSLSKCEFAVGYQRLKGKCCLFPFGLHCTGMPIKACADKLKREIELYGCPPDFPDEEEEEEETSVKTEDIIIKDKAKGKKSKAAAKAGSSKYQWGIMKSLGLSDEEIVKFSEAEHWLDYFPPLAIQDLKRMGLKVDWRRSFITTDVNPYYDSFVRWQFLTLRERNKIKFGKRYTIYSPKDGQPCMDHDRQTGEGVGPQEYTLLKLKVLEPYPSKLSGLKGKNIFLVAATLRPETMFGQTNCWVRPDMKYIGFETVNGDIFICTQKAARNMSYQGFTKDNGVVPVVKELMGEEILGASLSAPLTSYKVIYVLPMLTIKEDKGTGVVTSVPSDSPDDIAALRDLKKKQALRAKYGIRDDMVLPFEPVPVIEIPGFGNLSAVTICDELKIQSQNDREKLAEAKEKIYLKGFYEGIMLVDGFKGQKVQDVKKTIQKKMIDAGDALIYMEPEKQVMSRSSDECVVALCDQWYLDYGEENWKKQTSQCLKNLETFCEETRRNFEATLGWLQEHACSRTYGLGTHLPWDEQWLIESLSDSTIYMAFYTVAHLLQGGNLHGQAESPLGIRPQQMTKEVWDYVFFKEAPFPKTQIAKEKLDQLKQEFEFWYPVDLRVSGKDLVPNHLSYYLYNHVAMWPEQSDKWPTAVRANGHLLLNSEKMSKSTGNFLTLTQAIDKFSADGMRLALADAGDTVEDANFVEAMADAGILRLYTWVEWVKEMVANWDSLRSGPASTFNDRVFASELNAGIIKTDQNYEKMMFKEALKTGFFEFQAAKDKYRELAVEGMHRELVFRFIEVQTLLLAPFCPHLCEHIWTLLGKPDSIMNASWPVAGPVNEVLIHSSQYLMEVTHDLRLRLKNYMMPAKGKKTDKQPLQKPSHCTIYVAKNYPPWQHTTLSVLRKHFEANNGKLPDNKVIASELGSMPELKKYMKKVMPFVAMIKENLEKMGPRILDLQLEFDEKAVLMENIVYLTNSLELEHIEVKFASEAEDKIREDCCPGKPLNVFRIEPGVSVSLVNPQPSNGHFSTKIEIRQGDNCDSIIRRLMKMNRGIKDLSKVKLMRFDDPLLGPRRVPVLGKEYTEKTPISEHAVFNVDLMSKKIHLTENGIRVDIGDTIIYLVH
Mtb LeuRS, sequence (P9WFV1 whole entry): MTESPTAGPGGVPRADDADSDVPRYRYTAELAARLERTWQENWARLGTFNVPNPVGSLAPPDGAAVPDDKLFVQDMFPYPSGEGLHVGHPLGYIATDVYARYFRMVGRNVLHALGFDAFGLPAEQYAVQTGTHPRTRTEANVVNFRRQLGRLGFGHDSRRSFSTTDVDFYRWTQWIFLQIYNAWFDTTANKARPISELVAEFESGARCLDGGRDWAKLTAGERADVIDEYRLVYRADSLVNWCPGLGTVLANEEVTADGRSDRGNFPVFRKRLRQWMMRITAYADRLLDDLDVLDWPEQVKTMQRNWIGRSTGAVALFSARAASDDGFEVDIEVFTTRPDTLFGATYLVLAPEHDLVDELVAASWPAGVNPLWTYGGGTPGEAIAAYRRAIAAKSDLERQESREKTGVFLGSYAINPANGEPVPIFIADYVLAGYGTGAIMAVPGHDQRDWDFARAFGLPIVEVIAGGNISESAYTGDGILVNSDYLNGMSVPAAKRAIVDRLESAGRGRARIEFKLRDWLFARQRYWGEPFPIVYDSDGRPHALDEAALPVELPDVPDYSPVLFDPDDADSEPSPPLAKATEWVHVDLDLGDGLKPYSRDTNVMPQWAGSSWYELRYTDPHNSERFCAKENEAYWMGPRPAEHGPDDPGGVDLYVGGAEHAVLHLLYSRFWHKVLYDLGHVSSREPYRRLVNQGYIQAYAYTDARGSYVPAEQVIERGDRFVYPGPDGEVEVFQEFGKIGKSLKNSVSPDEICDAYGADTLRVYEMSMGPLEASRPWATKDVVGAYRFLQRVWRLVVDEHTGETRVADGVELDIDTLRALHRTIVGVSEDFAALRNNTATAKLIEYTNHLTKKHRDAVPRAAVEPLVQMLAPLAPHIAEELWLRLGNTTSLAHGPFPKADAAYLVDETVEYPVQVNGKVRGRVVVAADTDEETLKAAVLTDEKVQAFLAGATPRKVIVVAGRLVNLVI

NCCOc1cccc2c1B(O)OC2 [Example C3-H]
HepG2 cell 48 h Tox50 (A) (HepG2 cells): >50 µM
Selectivity Index (A/B) (Mtb H37Rv): >0.8
MIC (Mtb H37Rv; [3]): 62 µM (≈ 12 µg/mL)

NC[C@H]1OB2OCCOc3ccc(-c4cccs4)c1c32 [Example 4, (S)-(3-(thiophen-2-yl)-7,8-dihydro-2H-1,6,9-trioxa-9a-borabenzo[cd]azulen-2-yl)methanamine]
MIC (Mtb H37Rv; H37RV): 40.1 µM (≈ 11.5 µg/mL)
IC50 (Mtb LeuRS; read-out: Mtb LeuRS IC50): 300 µM

CCOc1ccc(Br)c2c1B(O)O[C@@H]2CN [Example C4-Br]
HepG2 cell 48 h Tox50 (A) (HepG2 cells): 32 µM
Selectivity Index (A/B) (Mtb H37Rv): 320
MIC (Mtb H37Rv; [3]): 0.1 µM (≈ 0.0286 µg/mL)
IC50 (Human cyto LeuRS): 73 µM and 67 µM

CC1COc2c(Cl)cc(Cl)c3c2B(O1)OC3CN (centres unmarked) [Example C7-Cl2]
HepG2 cell 48 h Tox50 (A) (HepG2 cells; human): >50 µM
Selectivity Index (A/B) (Mtb H37Rv): >20
MIC (Mtb H37Rv; H37RV): 2.5 µM (≈ 0.72 µg/mL)

NC[C@H]1OB2OCCOc3c(Cl)cc(Cl)c1c32 [Example C14-Cl2]
HepG2 cell 48 h Tox50 (A) (HepG2 cells; human): >50 µM
Selectivity Index (A/B) (Mtb H37Rv): >10

CCOc1ccc(Cl)c2c1B(O)O[C@@H]2CN [Example C6-Cl]
HepG2 cell 48 h Tox50 (A) (HepG2 cells): 36.3 µM
Selectivity Index (A/B) (Mtb H37Rv): 363
MIC (Mtb H37Rv; [3]): 0.1 µM (≈ 0.0241 µg/mL)

CC1(C)COc2cccc3c2B(OC3CN)O1 (centres unmarked) [Example C12-H]
MIC: P. aeruginosa PA01 (P. aeruginosa PA01): 16 µg/mL (≈ 68.6 µM)
MIC: A. baumannii ATCC 17978 (A. baumannii ATCC 17978): 4 µg/mL (≈ 17.2 µM)
MIC: E. coli K12 (E. coli K12): 4 µg/mL (≈ 17.2 µM)
HepG2 cell 48 h Tox50 (A) (HepG2 cells; human): 24.5 µM

CC1(C)COc2c(Cl)ccc3c2B(OC3CN)O1 (centres unmarked) [Example C8-Cl]
HepG2 cell 48 h Tox50 (A) (HepG2 cells; human): >50 µM
Selectivity Index (A/B) (Mtb H37Rv): 10

CC1(C)COB2OC(CN)c3c(Cl)ccc(c32)O1 (centres unmarked) [Example C9-Cl]
HepG2 cell 48 h Tox50 (A) (HepG2 cells; human): >50 µM
Selectivity Index (A/B) (Mtb H37Rv): >10
Selectivity Index (A/B) (Mtb H37Rv; listed as C9-CI): 10
MIC (Mtb H37Rv; H37RV): 5 µM (≈ 1.34 µg/mL)

CC1COc2cccc3c2B(O1)OC3CN (centres unmarked) [Example C11-H]
MIC: P. aeruginosa PA01 (P. aeruginosa PA01): 2 µg/mL (≈ 9.13 µM)
MIC: A. baumannii ATCC 17978 (A. baumannii ATCC 17978): 4 µg/mL (≈ 18.3 µM)
MIC: E. coli K12 (E. coli K12): 2 µg/mL (≈ 9.13 µM)
HepG2 cell 48 h Tox50 (A) (HepG2 cells; human): > 50 µM
HepG2 cell 48 h, percentage in brackets beside Tox50 (HepG2 cells; meaning of bracket not explained): 40%
MIC (Mtb H37Rv; H37RV): 1.56 µM (≈ 0.342 µg/mL)

CC1(C)COB2OC(CN)c3cccc(c32)O1 (centres unmarked) [Example C10-H]
HepG2 cell 48 h Tox50 (A) (HepG2 cells; human): >50 µM
Selectivity Index (A/B) (Mtb H37Rv): 10

c1cc2c3c(c1)OCCOB3OC2 [Example C1-H]
MIC (Mtb H37Rv; [3]): 31 µM (≈ 5.46 µg/mL)

Cc1ccc2c3c1[C@@H](CN)OB3OCCO2 [Example 2, (S)-(3-methyl-7,8-dihydro-2H-1,6,9-trioxa-9a-borabenzo[cd]azulen-2-yl)methanamine]
MIC: P. aeruginosa PA01 (P. aeruginosa PA01): >64 µg/mL
MIC: A. baumannii ATCC 17978 (A. baumannii ATCC 17978): >64 µg/mL
MIC: E. coli K12 (E. coli K12): >64 µg/mL
MIC: E. coli K12 tolC::Tn10 (E. coli K12 tolC::Tn10): >64 µg/mL
MIC: S. pneumoniae ATCC 6301 (S. pneumoniae ATCC 6301): >64
HepG2 cell 48 h Tox50 (A) (HepG2 cells; human): 971 µM
MIC S. aureus ATCC 29213 (S. aureus ATCC 29213): >64
activity against Gram negative bacteria [1]: poor activity
Selectivity Index (A/B) (Mtb H37Rv; listed as Example 2 G26-CH3): 4853 and > 4850
MIC (Mtb H37Rv; H37RV): 0.2 µM (≈ 0.0438 µg/mL)
IC50 (Human cyto LeuRS): 171 µM
impact on mammalian cellular protein synthesis [2]: low impact
IC50 ([2]; mammalian cells, read-out: Cell Prot Syn IC50): > 600 µM
IC50 (Mtb LeuRS): 0.53 µM
activity against leucyl tRNA synthetase from M. tuberculosis (Mtb LeuRS): good activity

CCOc1cccc2c1B(O)O[C@@H]2CN [Example C5-H]
HepG2 cell 48 h Tox50 (A) (HepG2 cells): 1.8 µM
Selectivity Index (A/B) (Mtb H37Rv): 3
MIC (Mtb H37Rv; [3]): 0.6 µM (≈ 0.124 µg/mL)

NCC1OB2OCCOc3cccc1c32 (racemic) [Example C2-H]
MIC: P. aeruginosa PA01 (P. aeruginosa PA01): 2 µg/mL (≈ 9.76 µM)
MIC: A. baumannii ATCC 17978 (A. baumannii ATCC 17978): 2 µg/mL (≈ 9.76 µM)
MIC: E. coli K12 (E. coli K12): 2 µg/mL (≈ 9.76 µM)
HepG2 cell 48 h Tox50 (A) (HepG2 cells; human): >50 µM
MIC (Mtb H37Rv; H37RV): 1.88 µM (≈ 0.385 µg/mL)

NC[C@H]1OB2OCCOc3c(Cl)ccc1c32 [Example C13-Cl]
HepG2 cell 48 h Tox50 (A) (HepG2 cells; human): >50 µM
Selectivity Index (A/B) (Mtb H37Rv): >10
MIC (Mtb H37Rv; H37RV): 5 µM (≈ 1.2 µg/mL)
IC50 (Mtb LeuRS; read-out: Mtb LeuRS IC50): 2.16 µM

NC[C@H]1OB2OCCOc3ccc(-c4ccccc4)c1c32 [Example 3, (S)-(3-phenyl-7,8-dihydro-2H-1,6,9-trioxa-9a-borabenzo[cd]azulen-2-yl)methanamine hydrochloride]
MIC (Mtb H37Rv; H37RV): 8.75 µM
IC50 (Mtb LeuRS; read-out: Mtb LeuRS IC50): 12 µM

Source: patent US10774096B2, “4-substituted benzoxaborole compounds and uses thereof” (GLAXOSMITHKLINE INTELLECTUAL PROPERTY (NO.2) LIMITED, priority 2015, dated 2020)
